Data on 1 compound can be found in patent US20240285755A1, “Adjuvants” (GlaxoSmithKline Biologicals SA, priority 2021, published 2024).

The test system of the experiment is HSV-1 gE/gI. The experiment is described as follows: Total anti-HSV-1 gE/gI cross-reactive IgG antibodies by ELISA in serum of immunised mice. In kind it is in vivo, CB6F1 mice. To be noted: 0.1 ug LNP/SAM i.m. days 0 & 28, adjuvanted with 2.22 ug of STING agonist at day+0, +1 or +3; 21PII (day 49); FIG. 3. Here is the method:
Female CB6F1 inbred mice aged 6-8 weeks old were randomly assigned to study groups (n=8 gr1-10 (groups 1-10) and n=4/gr11 (group 11)) and kept under pathogen-free conditions. Mice ([…]) were intramuscularly (i.m.) immunized, in the gastrocnemius muscle, on days 0 and 28 with 0.1ug of LNP-formulated SAM (25 uL volume) comprising a heterodimer of the HSV-2 gE and gI proteins (LNP/SAM-gE_P317R/gI) and were injected, in the same muscle, with different doses of STING agonist (0.25, 0.74 or 2.22ug) either at the same time (day+0) or 1 or 3 days after each of the two SAM immunizations. […]
Quantification of the total HSV-1 gE/gI-specific IgG antibodies was performed using indirect ELISA. […]
The plates were then washed four times with washing buffer and 2 times with deionised water and incubated for 15 min at RT (room temperature) with 100 uL/well of a solution of 75% single-component TMB peroxidase ELISA substrate diluted in sodium citrate 0.1M pH5.5 buffer. Enzymatic color development was stopped with 100 uL of […] sulfuric acid 1M (H2SO4) per well and the plates were read at an absorbance of 450/620 nm using an ELISA reader. Optical densities (OD) were captured and analysed. […] Antibody titer in the samples was calculated by interpolation of the standard curve. […]
Background: An ELISA detects its analyte on a solid surface through an enzyme-linked reagent.

For the compound `CCn1nc(C)cc1C(=O)/N=c1\[nH]c2cc(C(N)=O)cc(OC)c2n1C/C=C/Cn1/c(=N/C(=O)c2cc(C)nn2CC)[nH]c2cc(C(N)=O)cc(OCCCOP(=O)(O)O)c21` [STING, 3-(((E)-6-carbamoyl-3-((E)-4-((E)-5-carbamoyl-2-((1-ethyl-3-methyl-1H-pyrazole-5-carbonyl)imino)-7-methoxy-2,3-dihydro-1H-benzo[d]imidazol-1-yl)but-2-en-1-yl)-2-((1-ethyl-3-methyl-1H-pyrazole-5-carbonyl)imino)-2,3-dihydro-1H-benzo[d]imidazol-4-yl)oxy)propyl], the “GM titers of anti-HSV-1 gE/gI cross reactive IgG antibody relative to unadjuvanted control” value is “increased GM titers of anti-HSV-1 gE/gI cross reactive IgG antibody in all groups”.
